Data from PubChem BioAssay AID1963839 (Molecular Pharmacology Branch, DTP, NCI, 2024).

System: 817829-284-R-J1-PDC complex spheroid viability
Assay: Anticancer human tumor 817829-284-R-J1-PDC patient-derived colon adenocarcinoma cell line growth inhibition [POLQ]
Details: for IC50: curve of first compound; for viability, T/C: stronger effect = lower value
In short: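 Complex spheroid viability model combining PDC tumour cells with endothelial (HUVEC) and MSC stromal cells. Novobiocin, ART-558 or RP6685 were tested singly and in combination with standard and investigational anticancer drugs. Each was titrated in half-log steps from near clinical Cmax, or from 10 microM where Cmax was unknown.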

[1] = second compound 0.0316 µM, first compound 0.0316 µM
[2] = second compound 0.0316 µM, first compound 0.1 µM
[3] = second compound 0.0316 µM, first compound 0.316 µM
[4] = second compound 0.0316 µM, first compound 1 µM
[5] = second compound 0.0316 µM, first compound 3.16 µM
[6] = second compound 0.0316 µM, first compound 10 µM
[7] = second compound 0.1 µM, first compound 0.0316 µM
[8] = second compound 0.1 µM, first compound 0.1 µM
[9] = second compound 0.1 µM, first compound 0.316 µM
[10] = second compound 0.1 µM, first compound 1 µM
[11] = second compound 0.1 µM, first compound 3.16 µM
[12] = second compound 0.1 µM, first compound 10 µM
[13] = second compound 0.316 µM, first compound 0.0316 µM
[14] = second compound 0.316 µM, first compound 0.1 µM
[15] = second compound 0.316 µM, first compound 0.316 µM
[16] = second compound 0.316 µM, first compound 1 µM
[17] = second compound 0.316 µM, first compound 3.16 µM
[18] = second compound 0.316 µM, first compound 10 µM
[19] = second compound 1 µM, first compound 0.0316 µM
[20] = second compound 1 µM, first compound 0.1 µM
[21] = second compound 1 µM, first compound 0.316 µM
[22] = second compound 1 µM, first compound 1 µM
[23] = second compound 1 µM, first compound 3.16 µM
[24] = second compound 1 µM, first compound 10 µM
[25] = second compound 3.16 µM, first compound 0.0316 µM
[26] = second compound 3.16 µM, first compound 0.1 µM
[27] = second compound 3.16 µM, first compound 0.316 µM
[28] = second compound 3.16 µM, first compound 1 µM
[29] = second compound 3.16 µM, first compound 3.16 µM
[30] = second compound 3.16 µM, first compound 10 µM
[31] = second compound 10 µM, first compound 0.0316 µM
[32] = second compound 10 µM, first compound 0.1 µM
[33] = second compound 10 µM, first compound 0.316 µM
[34] = second compound 10 µM, first compound 1 µM
[35] = second compound 10 µM, first compound 3.16 µM
[36] = second compound 10 µM, first compound 10 µM
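Note: spheroids exposed to compounds for 7 days.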
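Throughout, for viability, T/C: 100% = DMSO vehicle-treated spheroids.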

C=CC(=O)N1CCN(c2nc(=O)n(-c3c(C)ccnc3C(C)C)c3nc(-c4c(O)cccc4F)c(F)cc23)C(C)C1 (stereo not drawn) + COC1C(OC(N)=O)C(O)C(Oc2ccc3c(O)c(NC(=O)c4ccc(O)c(CC=C(C)C)c4)c(=O)oc3c2C)OC1(C)C
IC50 (second compound 0.0316 µM): > 10 µM | IC50 (second compound 0.1 µM): > 10 µM | IC50 (second compound 0.316 µM): > 10 µM | IC50 (second compound 1 µM): > 10 µM | IC50 (second compound 3.16 µM): > 10 µM | IC50 (second compound 10 µM): > 10 µM | viability, T/C [1]: 87.6% | viability, T/C [2]: 125% | viability, T/C [3]: 89.3% | viability, T/C [4]: 99.9% | viability, T/C [5]: 121% | viability, T/C [6]: 67.3% | viability, T/C [7]: 124% | viability, T/C [8]: 100% | viability, T/C [9]: 133% | viability, T/C [10]: 83.3% | viability, T/C [11]: 118% | viability, T/C [12]: 76.2% | viability, T/C [13]: 115% | viability, T/C [14]: 127% | viability, T/C [15]: 104% | viability, T/C [16]: 97.4% | viability, T/C [17]: 95.7% | viability, T/C [18]: 59.6% | viability, T/C [19]: 132% | viability, T/C [20]: 104% | viability, T/C [21]: 77.8% | viability, T/C [22]: 140% | viability, T/C [23]: 89.3% | viability, T/C [24]: 51.2% | viability, T/C [25]: 102% | viability, T/C [26]: 108% | viability, T/C [27]: 123% | viability, T/C [28]: 97% | viability, T/C [29]: 80.4% | viability, T/C [30]: 72.2% | viability, T/C [31]: 78.8% | viability, T/C [32]: 96.8% | viability, T/C [33]: 80.7% | viability, T/C [34]: 98.2% | viability, T/C [35]: 107% | viability, T/C [36]: 57.3%

CC1COCCN1c1cc(-c2ccnn2C)c2ccnc(-c3ccn[nH]3)c2n1 (stereo not drawn) + COC1C(OC(N)=O)C(O)C(Oc2ccc3c(O)c(NC(=O)c4ccc(O)c(CC=C(C)C)c4)c(=O)oc3c2C)OC1(C)C
IC50 (second compound 0.0316 µM): < 0.0316 µM | IC50 (second compound 0.1 µM): < 0.0316 µM | IC50 (second compound 0.316 µM): < 0.0316 µM | IC50 (second compound 1 µM): < 0.0316 µM | IC50 (second compound 3.16 µM): < 0.0316 µM | IC50 (second compound 10 µM): < 0.0316 µM | viability, T/C [1]: 30.4% | viability, T/C [2]: 13.2% | viability, T/C [3]: 5.49% | viability, T/C [4]: 4.46% | viability, T/C [5]: 3.26% | viability, T/C [6]: 3.12% | viability, T/C [7]: 38.1% | viability, T/C [8]: 12.8% | viability, T/C [9]: 4.68% | viability, T/C [10]: 4.07% | viability, T/C [11]: 3.1% | viability, T/C [12]: 3.09% | viability, T/C [13]: 38.2% | viability, T/C [14]: 11.9% | viability, T/C [15]: 5.3% | viability, T/C [16]: 4.05% | viability, T/C [17]: 3.4% | viability, T/C [18]: 2.6% | viability, T/C [19]: 26.4% | viability, T/C [20]: 11.9% | viability, T/C [21]: 5.6% | viability, T/C [22]: 4.46% | viability, T/C [23]: 3.01% | viability, T/C [24]: 2.34% | viability, T/C [25]: 42.2% | viability, T/C [26]: 11% | viability, T/C [27]: 7.02% | viability, T/C [28]: 4.4% | viability, T/C [29]: 2.97% | viability, T/C [30]: 2.67% | viability, T/C [31]: 47.5% | viability, T/C [32]: 13.4% | viability, T/C [33]: 5.44% | viability, T/C [34]: 4.22% | viability, T/C [35]: 3.19% | viability, T/C [36]: 2.65%

CCc1cc2c(N3CCc4c(cc(Cn5ccnc5)cc4-c4cn(C)nc4C(F)(F)F)C3=O)ccnc2c(OC)n1 + COC1C(OC(N)=O)C(O)C(Oc2ccc3c(O)c(NC(=O)c4ccc(O)c(CC=C(C)C)c4)c(=O)oc3c2C)OC1(C)C
IC50 (second compound 0.0316 µM): 2.92 µM | IC50 (second compound 0.1 µM): 3.3 µM | IC50 (second compound 0.316 µM): 5.17 µM | IC50 (second compound 1 µM): 1.58 µM | IC50 (second compound 3.16 µM): 6.94 µM | IC50 (second compound 10 µM): 4.32 µM | viability, T/C [1]: 79% | viability, T/C [2]: 80.2% | viability, T/C [3]: 84.7% | viability, T/C [4]: 70% | viability, T/C [5]: 49% | viability, T/C [6]: 32.2% | viability, T/C [7]: 90.3% | viability, T/C [8]: 94% | viability, T/C [9]: 83.2% | viability, T/C [10]: 70.3% | viability, T/C [11]: 51.6% | viability, T/C [12]: 29.7% | viability, T/C [13]: 82.8% | viability, T/C [14]: 98.2% | viability, T/C [15]: 77.7% | viability, T/C [16]: 97.5% | viability, T/C [17]: 57.8% | viability, T/C [18]: 39.5% | viability, T/C [19]: 95.7% | viability, T/C [20]: 73% | viability, T/C [21]: 97.3% | viability, T/C [22]: 53.3% | viability, T/C [23]: 54.9% | viability, T/C [24]: 35.2% | viability, T/C [25]: 72.8% | viability, T/C [26]: 83.7% | viability, T/C [27]: 89.4% | viability, T/C [28]: 68.3% | viability, T/C [29]: 63.7% | viability, T/C [30]: 44.2% | viability, T/C [31]: 104% | viability, T/C [32]: 82.2% | viability, T/C [33]: 75.2% | viability, T/C [34]: 75.2% | viability, T/C [35]: 57% | viability, T/C [36]: 35.2%

COc1ccc([C@@H](O)c2cc(-c3ncnc4cc(N5CCOCC5)ccc34)c(F)cc2Cl)nn1 + COC1C(OC(N)=O)C(O)C(Oc2ccc3c(O)c(NC(=O)c4ccc(O)c(CC=C(C)C)c4)c(=O)oc3c2C)OC1(C)C
IC50 (second compound 0.0316 µM): 0.678 µM | IC50 (second compound 0.1 µM): 1.04 µM | IC50 (second compound 0.316 µM): 0.797 µM | IC50 (second compound 1 µM): 1.01 µM | IC50 (second compound 3.16 µM): 0.497 µM | IC50 (second compound 10 µM): 0.579 µM | viability, T/C [1]: 111% | viability, T/C [2]: 61.9% | viability, T/C [3]: 76.9% | viability, T/C [4]: 44.5% | viability, T/C [5]: 22.8% | viability, T/C [6]: 11.9% | viability, T/C [7]: 117% | viability, T/C [8]: 79.6% | viability, T/C [9]: 68.8% | viability, T/C [10]: 55% | viability, T/C [11]: 26.6% | viability, T/C [12]: 18.5% | viability, T/C [13]: 98.7% | viability, T/C [14]: 86% | viability, T/C [15]: 58.4% | viability, T/C [16]: 53.9% | viability, T/C [17]: 25.5% | viability, T/C [18]: 18.9% | viability, T/C [19]: 102% | viability, T/C [20]: 88.8% | viability, T/C [21]: 89.4% | viability, T/C [22]: 49.2% | viability, T/C [23]: 25.9% | viability, T/C [24]: 18.9% | viability, T/C [25]: 97.1% | viability, T/C [26]: 86% | viability, T/C [27]: 59.6% | viability, T/C [28]: 34.2% | viability, T/C [29]: 22.3% | viability, T/C [30]: 16% | viability, T/C [31]: 135% | viability, T/C [32]: 62.2% | viability, T/C [33]: 80% | viability, T/C [34]: 43.9% | viability, T/C [35]: 27.4% | viability, T/C [36]: 16.2%
